{"source": "patent US20230279061A1", "about": "“ISOLATED PEPTIDE FOR A PEPTIDE COACERVATE, AND METHODS OF USE THEREOF” (NANYANG TECHNOLOGICAL UNIVERSITY, priority 2020, published 2023)", "key": {"[1]": {"assay": "Optical/fluorescence microscopy of coacervates", "type": "physicochemical", "conditions": "near-physiological conditions", "protocol": "Optical and fluorescence microcopy images of HBpep-SP coacervates and fluorescence image of macromolecules-loaded HBpep-SP coacervates were taken using an invert fluorescence microscope (AxioObserver.Z1, Zeiss, Germany). Dynamic light scattering (DLS, ZetaPALS, Brookhaven, USA) system was employed to measure the size of pristine HBpep-SR coacervates and macromolecules-loaded HBpep-SR coacervates. The fresh prepared pristine or macromolecules-loaded coacervates (with or without 0.1 mg/mL of macromolecules, 1 mg/mL of modified peptides) was diluted into PBS with a volume ratio of 1 : 9.0 before the DLS test."}, "HEK293 cells": {"test_system": "HEK293 cells", "assay": "MTT cytotoxicity assay", "type": "cell-based", "conditions": "optimal concentration, HEK293 (FIG. 10D)", "protocol": "(§1) The cytotoxicity of the therapeutics-loaded or pristine peptide coacervates was evaluated by using the methylthiazolyldiphenyl-tetrazolium bromide (MTT) assay. Following literature protocols (Chang, H. et al., Nano Letters, 2017, 17, 1678; Sun, Y. et al. Biomat., 2017, 117, 77), 10^4 of HepG2 or HEK293 cells in 100 µL of media (DMEM, 10% FBS, antibiotics) were transferred into 96-wells plates and incubated for 24 hours. Then, the media were replaced with 100 µL of Opti-MEM containing therapeutics-loaded coacervates (various concentration of therapeutics, 1 mg/mL HBpep-SP) or various concentrations of pristine coacervate suspensions. After 4 hours of uptake, the media were removed and the cells were washed by PBS twice before adding 100 µL of media (DMEM, 10% FBS, antibiotics). The cells were incubated for another 20 hours before 10 µL of 5 mg/mL MTT dissolved in PBS was added. The media were removed after 4 hours of incubation with MTT, and the cells were washed by PBS twice. After that, 100 µL of DMSO per well was added for absorbance measurements at 570 nm using a microplate reader (Infinite M200 Pro, Tecan, Switzerland). The relative cell viability was calculated as: […]\n(§2) where At, Ab, and Ac represent the absorbance of tested cells, control cells and no cell, respectively."}, "HepG2 cells [2]": {"test_system": "HepG2 cells", "assay": "MTT cytotoxicity assay", "type": "cell-based", "conditions": "for cytotoxicity of coacervates with luciferase-encoding mRNA: optimal concentration, HepG2 (FIG. 10C); for cytotoxicity of peptide alone: free peptide, HepG2", "protocol": "as §1, §2"}, "[3]": {"assay": "Turbidity measurement of phase separation (coacervation) at various pH", "type": "physicochemical", "from_the_text": "The phase separation behavior of HBpep-K and HBpep-SR peptides at various pH was monitored turbidity measurements using a UV-Vis spectrometer (UV-2501PC, Shimadzu, Japan). The absorbance at 600 nm (A600) was used to calculate the relative turbidity (Lim, Z.W. et al., Bioconjugate Chem., 2018, 29, 2176) as: […]"}, "HepG2 cells [4]": {"test_system": "HepG2 cells", "assay": "Delivery of proteins and peptides into cells (fluorescence microscopy)", "type": "cell-based", "conditions": "free form, not recruited in coacervates", "protocol": "(§3) For protein delivery into cells, 10^5 of cells were suspended in 1 mL of Dulbecco’s modified Eagle medium (DMEM) supplemented with 10% of fetal bovine serum, 100 units/mL of penicillin and 100 µg/mL of streptomycin, and then transferred into […] culture dishes. After 24 hours of incubation at 37° C. with 5% of CO2, the media was replaced with 900 µL of Opti-MEM. Then, 100 µL of freshly prepared protein-loaded HBpep-SA or HBpep-SP coacervate suspensions (0.1 mg/mL of cargos, 1 mg/mL of modified peptides) were added into the media. After 4 hours of incubation, the media was removed and the cells were washed with PBS twice before adding 1 mL of fresh media (DMEM, 10% FBS, antibiotics). The cells were incubated for another 20 hours and then washed twice at pH 5.0 in phosphate buffer to remove any coacervates that had not entered the cells, before being imaged under the fluorescence microscope (AxioObserver.Z1, Zeiss, Germany)."}, "HepG2 cells [5]": {"test_system": "HepG2 cells", "assay": "X-Gal staining of cells after β-Gal delivery", "type": "cell-based", "conditions": "24 hours", "protocol": "as §3\nTo further confirm the versatility of the HBpep-SR peptide coacervate delivery system, β-Gal, a very high MW enzyme (MW = 430 kDa) was selected to be recruited into the HBpep-SP peptide coacervate. Intracellular delivery of β-Gal is challenging because of the difficulty in forming complexes with common nanocarriers owing to its high MW (Mitragotri, S. et al., Nat. Reviews Drug Disc., 2014, 13, 655)."}}, "note": "Where a SMILES comes first, the peptide text is derived from it. Where no end group is shown, it is not given here. The star is where a group is joined. X1 = O=C(OCCSSCCOC(=O)*)c1ccccc1; X2 = CC(=O)OCCSSCCOC(=O)*", "data": [{"molecule": "CC(=O)OCCSSCCOC(=O)NCCCC[C@H](NC(=O)[C@H](Cc1ccc(O)cc1)NC(=O)[C@@H]1CCCN1C(=O)CNC(=O)[C@H](Cc1c[nH]cn1)NC(=O)CNC(=O)[C@H](Cc1ccc(O)cc1)NC(=O)[C@@H](NC(=O)CNC(=O)[C@H](Cc1c[nH]cn1)NC(=O)CNC(=O)[C@H](Cc1ccc(O)cc1)NC(=O)[C@@H](NC(=O)CNC(=O)[C@H](Cc1c[nH]cn1)NC(=O)CN)C(C)C)C(C)C)C(=O)NCC(=O)N[C@@H](Cc1c[nH]cn1)C(=O)NCC(=O)N1CCC[C@H]1C(=O)N[C@@H](Cc1ccc(O)cc1)C(=O)NCC(=O)N[C@@H](Cc1c[nH]cn1)C(=O)NCC(=O)N[C@@H](CC(C)C)C(=O)N[C@@H](Cc1ccc(O)cc1)C(=O)N[C@@H](Cc1c[nH]c2ccccc12)C(=O)O", "note": "[HBpep-SA] (H-GHGVYGHGVYGHGPYK(X2)GHGPYGHGLYW-OH)", "values": [{"measurement": "stability of coacervate microdroplets", "setting": "[1]", "result": "formed stable microdroplets at near-physiological conditions"}, {"measurement": "cytotoxicity of coacervates with luciferase-encoding mRNA", "setting": "HEK293 cells", "result": "neither HBpep-SA nor HBpep-SP peptide coacervates with luciferase-encoding mRNA caused cytotoxicity"}, {"measurement": "cytotoxicity of coacervates with luciferase-encoding mRNA", "setting": "HepG2 cells [2]", "result": "neither HBpep-SA nor HBpep-SP peptide coacervates with luciferase-encoding mRNA caused cytotoxicity"}]}, {"molecule": "GHGVY GHGVY GHGPY K GHGPY GHGLY W (GHGVYGHGVYGHGPYKGHGPYGHGLYW; HBpep derivative) [HBpep-K, HBpep with a single lysine residue inserted at position 16]", "values": [{"measurement": "phase state at neutral pH", "setting": "[3]; neutral pH", "result": "reverts to the single phase"}, {"measurement": "pH at which the peptide phase separates", "setting": "[3]; turbidity at various pH", "result": 9.0, "unit": "pH"}]}, {"molecule": "lysozyme: Alexa Fluor 488-labeled lysozyme, cargo protein", "values": [{"measurement": "internalization / crossing of the cell membrane by free cargo", "setting": "HepG2 cells [4]", "result": "neither lysozyme (FIGS. 8E, 8F) nor BSA (FIGS. 8G, 8H) were internalized by HepG2 cells"}]}, {"molecule": "β-Gal", "values": [{"measurement": "X-Gal staining (β-Gal activity in cells)", "setting": "HepG2 cells [5]", "result": "no blue pigment formation"}]}, {"molecule": "KLAKLAK KLAKLAK (KLAKLAKKLAKLAK) [PAD, proapoptotic domain peptide, reference compound]", "values": [{"measurement": "cytotoxicity of peptide alone", "setting": "HepG2 cells [2]", "result": "negligible cytotoxicity"}]}, {"molecule": "AVPIAQK [Smac, AVPIAQK, reference compound]", "values": [{"measurement": "cytotoxicity of peptide alone", "setting": "HepG2 cells [2]", "result": "negligible cytotoxicity"}]}, {"molecule": "CC(C)C[C@H](NC(=O)CNC(=O)[C@H](Cc1c[nH]cn1)NC(=O)CNC(=O)[C@H](Cc1ccc(O)cc1)NC(=O)[C@@H]1CCCN1C(=O)CNC(=O)[C@H](Cc1c[nH]cn1)NC(=O)CNC(=O)[C@H](CCCCNC(=O)OCCSSCCOC(=O)c1ccccc1)NC(=O)[C@H](Cc1ccc(O)cc1)NC(=O)[C@@H]1CCCN1C(=O)CNC(=O)[C@H](Cc1c[nH]cn1)NC(=O)CNC(=O)[C@H](Cc1ccc(O)cc1)NC(=O)[C@@H](NC(=O)CNC(=O)[C@H](Cc1c[nH]cn1)NC(=O)CNC(=O)[C@H](Cc1ccc(O)cc1)NC(=O)[C@@H](NC(=O)CNC(=O)[C@H](Cc1c[nH]cn1)NC(=O)CN)C(C)C)C(C)C)C(=O)N[C@@H](Cc1ccc(O)cc1)C(=O)N[C@@H](Cc1c[nH]c2ccccc12)C(=O)O", "note": "[HBpep-SP] (H-GHGVYGHGVYGHGPYK(X1)GHGPYGHGLYW-OH)", "values": [{"measurement": "stability of coacervate microdroplets", "setting": "[1]", "result": "formed stable microdroplets at near-physiological conditions"}, {"measurement": "cytotoxicity of coacervates with luciferase-encoding mRNA", "setting": "HEK293 cells", "result": "neither HBpep-SA nor HBpep-SP peptide coacervates with luciferase-encoding mRNA caused cytotoxicity"}, {"measurement": "cytotoxicity of coacervates with luciferase-encoding mRNA", "setting": "HepG2 cells [2]", "result": "neither HBpep-SA nor HBpep-SP peptide coacervates with luciferase-encoding mRNA caused cytotoxicity"}]}]}
